These are literature values, as cited in article PMC10698917, “Antioxidant and antidiabetic flavonoids from the leaves of Dypsis pembana (H.E.Moore) Beentje & J.Dransf., Arecaceae: in vitro and molecular docking studies” (BMC Complementary Medicine and Therapies, 2023).

In the series the test system is HepG-2 cell line. Further details: method as in PMID 37391756. Particulars: cited from earlier work.

Consider `O=c1cc(-c2ccc(O)cc2)oc2c([C@@H]3O[C@H](CO)[C@@H](O)[C@H](O)[C@H]3O)c(O)c([C@@H]3O[C@H](CO)[C@@H](O)[C@H](O)[C@H]3O)c(O)c12` [Compound 7, vicenin-II], for which the Cytotoxic activity result is listed as “promising cytotoxic activities”.

Turning to `O=c1cc(-c2ccc(O)cc2)oc2cc(O)c([C@@H]3O[C@H](CO)[C@@H](O)[C@H](O)[C@H]3O)c(O)c12` [Compound 13, isovitexin], the Cytotoxic activity result is “promising cytotoxic activities”.
